Reference: publication PMC5109658, “Antibacterial and cytotoxic cytochalasins from the endophytic fungus Phomopsis sp. harbored in Garcinia kola (Heckel) nut” (BMC Complementary and Alternative Medicine, 2016)
≈ marks a conversion by molar mass, not a printed value. Read-outs that look alike come from different tables or passages of the source.

Legend:
[1] = test system: V. cholerae CO6; test: Broth microdilution MIC/MBC; type: cell-based, Vibrio cholerae; conditions: for MBC/MIC / MBC / MIC: V. cholerae CO6; for MBC / MIC: Vibrio cholerae; for MBC: 99.9% reduction in CFU after 24 h; for MIC: 24 h at 37 °C; for Selectivity Index V. cholerae CO6: SI = LC50 on Vero cells / MIC
Protocol: (§1) A total of six bacterial strains were tested for their susceptibility to compounds and these strains were taken from our laboratory collection (kindly provided by Dr. T. Ramamurthy, NICED, Kolkata). Among the clinical strains of Vibrio cholerae used in this study, strains NB2 and SG24 and CO6 belonged to O1 and O139 serotypes, respectively. […]. The other strains used in this study were V. cholerae non-O1, non-O139 (strain PC2); […]. The American Type Culture Collection (ATCC) strain, Staphylococcus aureus ATCC 25923, was used for quality control. The bacterial strains were maintained on agar slant at 4 °C and subcultured on a fresh appropriate agar plates 24 h prior to any antibacterial test. The Mueller Hinton Agar (MHA) was used for the activation of bacteria. The Mueller Hinton Broth (MHB) and nutrient agar (Hi-Media) were used for the MIC and MBC determinations respectively.
(§2) Suspensions of bacteria were prepared in MHB from cells arrested during their logarithmic phase growth (4 h) on MHB at 37 °C. The turbidity of the microbial suspension was read spectrophotometrically at 600 nm and adjusted to an OD of 0.1 with MHB, which is equivalent to 1 × 10^8 CFU/mL. From this prepared solution, other dilutions were made with MHB to yield 1x10^6 CFU/mL.
(§3) MIC and MBC of compounds 1–3 were assessed using the broth microdilution method recommended by the National Committee for Clinical Laboratory Standards with slight modifications. Each test sample was dissolved in dimethylsulfoxide (DMSO) to give a stock solution. The 96-well round bottom sterile plates were prepared by dispensing 180 μL of the inoculated broth (1x10^6 CFU/mL) into each well. A 20 μL aliquot of the stock solution of compound was added. The concentrations of sample tested were 0.125, 0.25, 0.50, 1, 2, 4, 8, 16, 32, 64, 128, 256 and 512 μg/mL. […] Dilutions of tetracycline and ampicillin served as positive controls, while broth with 20 μL of DMSO was used as negative control. The ATCC strain Staphylococcus aureus ATCC 25923 was included for quality assurance purposes. Plates were covered and incubated for 24 h at 37 °C. After incubation, minimum inhibitory concentrations (MIC) were read visually; all wells were plated to nutrient agar (Hi-Media) and incubated. The minimal bactericidal concentration (MBC) was defined as a 99.9% reduction in CFU from the starting inoculums after 24 h incubation interval.

[2] = test system: V. cholerae PC2; test: Broth microdilution MIC/MBC; type: cell-based, Vibrio cholerae; conditions: for MIC / MBC / MBC/MIC: V. cholerae PC2; for MIC: 24 h at 37 °C; for MBC: 99.9% reduction in CFU after 24 h
Protocol: as §1, §2, §3

[3] = test system: V. cholerae SG24; test: Broth microdilution MIC/MBC; type: cell-based, Vibrio cholerae; conditions: for MBC / MIC: Vibrio cholerae; for MBC: 99.9% reduction in CFU after 24 h; for MIC: 24 h at 37 °C
Protocol: as §1, §2, §3

[4] = test system: V. cholerae NB2; test: Broth microdilution MIC/MBC; type: cell-based, Vibrio cholerae; conditions: for MIC / MBC / MBC/MIC: V. cholerae NB2; for MIC: 24 h at 37 °C; for MBC: 99.9% reduction in CFU after 24 h; for Selectivity Index V. cholerae NB2: SI = LC50 on Vero cells / MIC
Protocol: as §1, §2, §3

[5] = test system: S. flexneri SDINT; test: Broth microdilution MIC/MBC; type: cell-based, Shigella flexneri; conditions: for MIC / MBC / MBC/MIC: S. flexneri SDINT; for MIC: 24 h at 37 °C; for MBC: 99.9% reduction in CFU after 24 h; for Selectivity Index S. flexneri SDINT: SI = LC50 on Vero cells / MIC
Protocol: as §1, §2, §3

[6] = test system: S. aureus ATCC 25923; test: Broth microdilution MIC/MBC; type: cell-based, Staphylococcus aureus; conditions: for MBC/MIC / MBC / MIC: S. aureus ATCC 25923; for MBC / MIC: Staphylococcus aureus, ATCC25923; for MBC: 99.9% reduction in CFU after 24 h; for MIC: 24 h at 37 °C; for Selectivity Index S. aureus ATCC 25923: SI = LC50 on Vero cells / MIC
Protocol: as §1, §2, §3

[7] = MTT cytotoxicity assay; type: cell-based; conditions: African green monkey, Vero cells, normal non-cancer cells, mean ± SD, read-out: Cytotoxicty (LC50) Vero cells
Protocol: (§4) HeLa (Human cervical cancer cell line, ATCC No. CCL-2) and Vero cells (African green monkey kidney cells, normal non-cancer cells, ATCC No. CCL-81), obtained from the American Type Culture Collection (ATCC) were used in this study. Cytotoxic activity was determined using the 3-(4,5-dimethylthiazol-2-yl)-2,5-diphenyltetrazolium bromide (MTT, Sigma, USA) assay reported by Mosmann for the HeLa and Vero cells. This cell viability assay is based on living cell‘s property to transform the MTT dye tetrazolium ring into a purple-colored formazan structure due to the action of mitochondrial and other dehydrogenases inside the cell. The color intensity yielded by the cell population is directly proportional to the number of viable cells, and one can quantify the absorbance measurements using mathematical parameters. Each test sample was dissolved in dimethylsulfoxide (DMSO) to give a stock solution. Compounds 1–3 were prepared from the stock solutions by serial dilution in RPMI 1640 to give a volume of 100 μL in each well of a microtiter plate (96-well). Each well was filled with 100 μL of cells at 2 × 10^5 cells/mL. The assay for each concentration of compound was performed in triplicates and the culture plates were kept at 37 °C with 5% (v/v) CO2 for 24 h. After removing the supernatant of each well and washing twice by PBS, 20 μL of MTT solution (5 mg/mL in PBS) and 100 μL of medium were then introduced. After 4 h of incubation, 100 μL of DMSO were added to each well to dissolve the formazan crystals and the absorbance values at 490 nm were measured with a microplate reader (Bio-RAD 680, USA). The relative cell viability (%) was expressed as a relative percentage of treated cells to the untreated control cells (TC/UC × 100). The rate of cell inhibition was calculated using the following formula: inhibition rate = [1- (ODtest/ODnegative control)] × 100%. The LC50 values were calculated as the concentration of test sample resulting in a 50% reduction of absorbance compared to untreated cells. Cells treated with 5-fluorouridine + RPMI 1640 served as positive control while cells left untreated + 1% (v/v) DMSO + RPMI 1640 were used as negative control.

[8] = Hemolytic assay; type: cell-based; conditions: male, 1% human red blood cell suspension, 512 μg/mL (highest concentration tested), 1% human red blood cells, PBS pH 7.4, 37 °C
Protocol: Whole blood (10 mL) from a healthy person was collected into a conical tube containing heparin as an anticoagulant. Erythrocytes were harvested by centrifugation at room temperature for 10 min at 1,000 × g and were washed three times in PBS solution. The top layer (plasma) and the next, milky layer (buffy coat with a layer of platelets on top of it) were then carefully aspirated and discarded. The cell pellet was resuspended in 10 mL of PBS solution and mixed by gentle aspiration with a Pasteur pipette. This cell suspension was used immediately.
For the normal human red blood cells, which were in suspension, the cytotoxicity was evaluated as previously described. Compounds 1–3, at concentrations ranging from 32 to 512 μg/mL, were incubated with an equal volume of 1% human red blood cells in phosphate buffered saline (10 mM PBS, pH 7.4) at 37 °C for 1 h. Tetracycline was tested simultaneously. Non-hemolytic and 100% hemolytic controls were the buffer alone and the buffer containing 1% Triton X-100, respectively. Cell lysis was monitored by measuring the release of hemoglobin at 595 nm with a spectrophotometer (Thermo Scientific, USA). Percent hemolysis was calculated as follows: [(A595 of sample treated with compound - A595 of sample treated with buffer)/(A595 of sample treated with Triton X-100 – A595 of sample treated with buffer)] x 100.

[9] = test system: studied microorganisms (six bacterial strains); test: Antibacterial spectrum over the six tested strains (broth microdilution); type: cell-based; conditions: out of 6 strains; concentrations up to 512 μg/mL
Protocol: as §1, §3

[10] = MTT cytotoxicity assay; type: cell-based, Human; conditions: human, HeLa cells; MTT, 24 h, mean ± SD; read-out: Cytotoxicty (LC50) HeLa cells
Protocol: as §4

[11] = test system: HeLa cells; test: MTT cytotoxicity assay; type: cell-based, Human; conditions: SI = LC50 on Vero cells / LC50 on HeLa cells
Protocol: as §4

[12] = Shigella flexneri, read-out: MIC

Row | SMILES | MBC/MIC [1] | MBC [1] [µg/mL] | MIC [1] [µg/mL] | MBC ([2]; Vibrio cholerae) [µg/mL] | MIC ([2]; Vibrio cholerae, read-out: MIC) [µg/mL] | MBC [3] [µg/mL] | MIC [3] [µg/mL] | MBC ([4]; Vibrio cholerae) [µg/mL] | MIC ([4]; Vibrio cholerae, read-out: MIC) [µg/mL] | MBC ([5]; Shigella flexneri) [µg/mL] | MIC [5, 12] [µg/mL] | MBC/MIC [6] | MBC [6] [µg/mL] | MIC [6] [µg/mL] | MBC/MIC [4] | MBC/MIC [5] | CC50 at 24 h [7] [µg/mL] | hemolysis at 1 h, 512 μg/mL [8] [%] | CC50 at 24 h [10] [µg/mL] | Selectivity Index HeLa cells [11] | other results
1 | CC1(C)S[C@@H]2[C@H](NC(=O)[C@H](N)c3ccccc3)C(=O)N2[C@H]1C(=O)O [Ampicillin, reference compound] | 1 | 16 (≈ 45.8 µM) | 16 (≈ 45.8 µM) | > 512 | > 512 | 16 (≈ 45.8 µM) | 16 (≈ 45.8 µM) | > 512 | > 512 | > 512 | > 512 | 1 | 16 (≈ 45.8 µM) | 16 (≈ 45.8 µM) | – | – | – | – | – | – | MIC [2]: >512 µg/mL; MBC/MIC [3]: 1; MIC [4]: >512 µg/mL; MIC [5]: >512 µg/mL
2 | C=C1[C@@H](C)C2[C@H](Cc3ccccc3)NC(=O)[C@]23[C@H](O)/C=C/[C@](C)(OC)C[C@@H](C)C/C=C/[C@@H]3[C@@H]1O (stereo partly drawn) [Compound 1, 18-metoxycytochalasin J] | 1 | 512 (≈ 1100 µM) | 512 (≈ 1100 µM) | > 512 | > 512 | > 512 | > 512 | 512 (≈ 1100 µM) | 512 (≈ 1100 µM) | 128 (≈ 275 µM) | 128 (≈ 275 µM) | 1 | 128 (≈ 275 µM) | 128 (≈ 275 µM) | 1 | 1 | 93 ± 2.54 (≈ 200 µM) | < 10 | 8.18 ± 0.92 (≈ 17.6 µM) | 11.37 | Selectivity Index V. cholerae CO6 [1]: 0.18; Selectivity Index V. cholerae NB2 [4]: 0.18; Selectivity Index S. flexneri SDINT [5]: 0.72; share of the studied microorganisms on which inhibitory effects were noted [9]: 66.66%; Selectivity Index S. aureus ATCC 25923 [6]: 0.72
3 | C=C1[C@@H](C)C2[C@H](Cc3ccccc3)NC(=O)[C@@]23C(/C=C/C[C@H](C)C[C@@](C)(O)/C=C/[C@H]3OC(C)=O)[C@@H]1O (stereo partly drawn) [Compound 2, cytochalasin H] | 1 | 512 (≈ 1040 µM) | 512 (≈ 1040 µM) | 256 (≈ 519 µM) | 256 (≈ 519 µM) | > 512 | > 512 | 512 (≈ 1040 µM) | 512 (≈ 1040 µM) | 128 (≈ 259 µM) | 128 (≈ 259 µM) | 1 | 256 (≈ 519 µM) | 256 (≈ 519 µM) | 1 | 1 | 129.1 ± 1.2 (≈ 262 µM) | 20.1 | 35.7 ± 1.31 (≈ 72.3 µM) | 3.61 | Selectivity Index V. cholerae CO6 [1]: 0.25; Selectivity Index V. cholerae PC2 ([2]; SI = LC50 on Vero cells / MIC): 0.50; MBC/MIC [2]: 1; Selectivity Index V. cholerae NB2 [4]: 0.25; Selectivity Index S. flexneri SDINT [5]: 1.00; share of the studied microorganisms on which inhibitory effects were noted [9]: 83.33%; Selectivity Index S. aureus ATCC 25923 [6]: 0.50
4 | C=C1[C@@H](C)C2[C@H](Cc3ccccc3)NC(=O)[C@@]23C(/C=C/C[C@H](C)C[C@@](C)(O)/C=C/[C@H]3O)[C@@H]1O (stereo partly drawn) [Compound 3, cytochalasin J] | 1 | 512 (≈ 1130 µM) | 512 (≈ 1130 µM) | > 512 | > 512 | > 512 | > 512 | 512 (≈ 1130 µM) | 512 (≈ 1130 µM) | 128 (≈ 283 µM) | 128 (≈ 283 µM) | 1 | 512 (≈ 1130 µM) | 512 (≈ 1130 µM) | 1 | 1 | 73.9 ± 0.92 (≈ 164 µM) | < 10 | 3.66 ± 0.33 (≈ 8.1 µM) | 20.18 | Selectivity Index V. cholerae CO6 [1]: 0.14; Selectivity Index V. cholerae NB2 [4]: 0.14; Selectivity Index S. flexneri SDINT [5]: 0.57; share of the studied microorganisms on which inhibitory effects were noted [9]: 66.66%; Selectivity Index S. aureus ATCC 25923 [6]: 0.14
5 | O=c1[nH]c(=O)n([C@@H]2O[C@H](CO)[C@@H](O)[C@H]2O)cc1F [Compound 5-FU, 5-Fluorouridine, reference compound] | – | – | – | – | – | – | – | – | – | – | – | – | – | – | – | – | 4.63 ± 0.17 (≈ 17.7 µM) | – | 0.25 ± 0.05 (≈ 0.953 µM) | 18.52 | –
6 | CN(C)[C@@H]1C(O)=C(C(N)=O)C(=O)[C@@]2(O)C(O)=C3C(=O)c4c(O)cccc4[C@@](C)(O)[C@H]3C[C@@H]12 [Tetracycline, reference compound] | 4 | 8 (≈ 18 µM) | 2 (≈ 4.5 µM) | 1 (≈ 2.25 µM) | 0.5 (≈ 1.13 µM) | 1 (≈ 2.25 µM) | 0.5 (≈ 1.13 µM) | 2 (≈ 4.5 µM) | 0.5 (≈ 1.13 µM) | 32 (≈ 72 µM) | 16 (≈ 36 µM) | 2 | 32 (≈ 72 µM) | 16 (≈ 36 µM) | 4 | 2 | – | < 10 | – | – | MBC/MIC [2]: 2; MBC/MIC [3]: 2
